Results reported in patent publication US9133140B2, “Cycloalkylamne derivatives” (Daiichi Sankyo Company, Limited, priority 2008, dated 2015).
Structures can show the parent of a compound that is named as a salt. Where two headings read alike, the source gives them in different places. Values belong to the compound of their own block, whether it stands above or below them.

Legend:
[1] = biological target: T1, human CaSR (Homo sapiens, UniProt P41180); experiment: Human CaSR activity measurement test (intracellular calcium in TT cells); format: cell-based; settings: [EC50 of test compound]/[EC50 of Compound A], intracellular calcium fluorescence
T1 construct: TT cells are cell lines that express human CaSR; endogenous in cells; host or cells: TT cells (human medullary thyroid carcinoma cell line)
T1 sequence (P41180 20-1078): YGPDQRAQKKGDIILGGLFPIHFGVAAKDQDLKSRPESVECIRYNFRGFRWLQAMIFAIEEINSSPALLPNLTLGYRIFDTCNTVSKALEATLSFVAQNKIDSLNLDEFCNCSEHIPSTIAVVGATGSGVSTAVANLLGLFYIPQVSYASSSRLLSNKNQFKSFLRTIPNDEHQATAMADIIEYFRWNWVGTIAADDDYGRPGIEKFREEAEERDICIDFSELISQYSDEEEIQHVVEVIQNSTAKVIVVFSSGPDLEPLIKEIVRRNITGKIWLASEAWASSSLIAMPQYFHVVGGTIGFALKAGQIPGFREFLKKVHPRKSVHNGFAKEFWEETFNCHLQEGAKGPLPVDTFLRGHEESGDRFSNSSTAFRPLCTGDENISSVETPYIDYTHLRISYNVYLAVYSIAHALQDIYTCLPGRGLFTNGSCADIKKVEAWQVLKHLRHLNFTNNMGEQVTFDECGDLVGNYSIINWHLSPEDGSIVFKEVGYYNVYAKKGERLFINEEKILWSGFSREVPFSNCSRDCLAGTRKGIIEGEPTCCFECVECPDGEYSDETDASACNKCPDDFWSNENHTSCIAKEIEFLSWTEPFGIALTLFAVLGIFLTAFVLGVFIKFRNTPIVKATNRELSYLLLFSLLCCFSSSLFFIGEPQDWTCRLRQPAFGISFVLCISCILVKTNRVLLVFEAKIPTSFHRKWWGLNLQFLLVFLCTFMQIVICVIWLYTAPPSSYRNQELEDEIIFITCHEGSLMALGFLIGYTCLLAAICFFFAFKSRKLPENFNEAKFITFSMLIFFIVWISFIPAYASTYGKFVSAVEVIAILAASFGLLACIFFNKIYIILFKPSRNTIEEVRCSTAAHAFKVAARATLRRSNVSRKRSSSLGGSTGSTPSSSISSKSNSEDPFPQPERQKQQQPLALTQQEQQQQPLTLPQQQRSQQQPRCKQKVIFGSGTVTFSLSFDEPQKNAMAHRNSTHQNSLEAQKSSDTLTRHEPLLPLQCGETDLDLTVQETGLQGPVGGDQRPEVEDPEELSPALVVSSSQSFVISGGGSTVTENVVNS
Experimental: It is reported that human medullary thyroid carcinoma cell lines TT cells are cell lines that express human CaSR, and when CaSR is activated by extracellular calcium ions or the like, intracellular calcium ion concentration increases (Endocrinology 137: 3842-3848, 1996). Accordingly, an activating action of the test compounds with respect to human CaSR was evaluated by using the change in intracellular calcium concentration of TT cells as an indicator. TT cells were inoculated onto a black well/clear bottom 96 well plate (poly-D-lysine coat: manufactured by BD biosciences), and were cultured for approximately 24 hours in a F-12 Nutrient Mixture (Kaighn's modification) culture media containing 10% calf serum and 0.5% antibiotic antimycotic. […] Then, the plate was allowed to stand for 1 hour at 37° C. Subsequently, the above-mentioned plate was placed onto FlexStation (manufactured by Molecular Device) or FlexStation 3 (manufactured by Molecular Device), and fluorescence intensity before and after treatment with the test compound dissolved in a buffer for measurement (126 mM NaCl, 4 mM KCl, 1 mM MgCl2, 20 mM HEPES (pH 7.4), 5.6 mM glucose, 2 mM CaCl2) was measured. […] Nagano, Pharmacol. […] WO 1996/12697) as a comparative compound, by conducting a similar procedure. From the following equation, the human CaSR activity of each of the test compounds was calculated as the relative activity with respect to Compound A. Relative activity with respect to Compound A=[EC50 of test compound]/[EC50 of Compound A]

[2] = test system: calcium ion concentration in the blood; experiment: Measurement test for concentration of parathyroid hormone and calcium ion in rat blood; format: in vivo; settings: read-out: reduction of calcium concentration in the blood
Experimental: Three male SD rats (manufactured by Japan SLC, Inc.) were orally administered with the test compound, and effects on the concentration of parathyroid hormone (PTH) in the blood and concentration of the calcium ion in the blood were studied.
The test compound was administered by dissolving or suspending it in a 0.5% methyl cellulose 400 (MC) solution or 0.5% MC solution containing 10% of ethanol. (In addition, Compound A used in Test Example 1 was administered as a MC suspension by dosage of 30 mg/kg, and was studied as a comparative example.) Blood was collected from the jugular vein under anesthesia with halothane or isoflurane, before administration of the test compound, and 2, 4, 6 or 8 and 24 hours after administration. Calcium ion concentration in the blood was measured using cartridge EG7+(manufactured by Fuso Chemical Co., Ltd.) and i-STAT 300F (manufactured by Fuso Chemical Co., Ltd.). In addition, plasma intact PTH concentration was measured using Rat intact PTH ELISA kit (manufactured by Immutopics).
The transition of calcium ion concentration in the blood over time from before administration to 24 hours after administration of each of the test compounds was plotted, and the decrease in calcium ion concentration in the blood from the value before administration was calculated as an area value.

SMILES: C[C@@H](N[C@H]1CC[C@@H](c2ccc(NCC(=O)O)cc2)C1)c1cccc2ccccc12 [Example 33, N-{4-[(1R,3S)-3-{[(1R)-1-(Naphthalen-1-yl)ethyl]amino}cyclopentyl]phenyl}glycine 0.4 hydrochloride]
Relative activity with respect to Compound A [1]: 0.23
inhibition in vivo at 10 mg/kg ([2]; po, 4 h): ≥ 30%

SMILES: C[C@@H](N[C@H]1CC[C@@H](c2ccc(NCCC(=O)O)cc2)C1)c1cccc2ccccc12 [Example 34, N-{4-[(1R,3S)-3-{[(1R)-1-(Naphthalen-1-yl)ethyl]amino}cyclopentyl]phenyl}-β-alanine 0.5 hydrochloride]
Relative activity with respect to Compound A [1]: 0.26
inhibition in vivo at 10 mg/kg ([2]; po, 4 h): ≥ 30%

Relative activity with respect to Compound A [1]: 0.15
SMILES: C[C@@H](N[C@H]1CC[C@@H](c2ccc(SCC(=O)O)cc2)C1)c1cccc2ccccc12 [Example 36, ({4-[(1R,3S)-3-{[(1R)-1-(Naphthalen-1-yl)ethyl]amino}cyclopentyl]phenyl}thio)acetic acid hydrochloride]
inhibition in vivo at 10 mg/kg ([2]; male SD rats, oral, 10 mg/kg, 4 hours after administration): ≥ 30%
